Laboratory results as given in PubChem BioAssay AID1902 (Broad Institute, 2009).
Activity calls are given as the source filed them.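 Rule for the calls: active = EC50 no more than a set limit of log units above the highest dose; inactive = the rest.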

Biological target: S. pyogenes SKKanGAS, kanamycin survival, BacTiterGlo, 6 h
Experiment: SKKanGAS survival reduction under kanamycin, dose response, streptokinase promoter inhibitor project, SKKanGAS strain, luminescence, dose confirmation (AID 1902);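 note: lower survival reflects blocked streptokinase promoter driving kanamycin resistance gene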

**Q.** For `COC(=O)c1nc(NC(=S)NC(=O)c2cccs2)sc1C`, which EC50 is on record?
**A.** 12.7 µM

**Q.** `CC(C)n1cnc2c(NCc3ccccc3)nc(NCc3ccccc3)nc21` was tested. Which EC50 did it give?
**A.** 3.06 µM

**Q.** How did the EC50 turn out when `C=C(C)COc1ccc(-c2nc(N)ncc2-c2ccc(Cl)cc2)c(O)c1` was run?
**A.** 5.69 µM

**Q.** How did the EC50 turn out when `CC(OC(=O)Cc1n[nH]c(=O)c2ccccc12)C(=O)Nc1ccc(Cl)cn1` (stereo not given) was run?
**A.** 14.7 µM

**Q.** For `Cc1ccc(/C=C/C(=O)c2ccc([N+](=O)[O-])o2)cc1`, which EC50 is on record?
**A.** 5.27 µM

**Q.** `C/C(=N\NC(=O)CSc1nc(C)[nH]c1[N+](=O)[O-])c1ccc(F)cc1` was tested. Which EC50 did it give?
**A.** > 15 µM (inactive)

**Q.** How did the EC50 turn out when `O=C1NC(=O)/C(=C/c2ccccc2Oc2ccc(Cl)cc2)S1` was run?
**A.** 6.33 µM

**Q.** With `Oc1cccc(NC(=S)N=Nc2c(O)[nH]c3ccc(Br)cc23)c1` as the compound, how does the EC50 read?
**A.** 2.33 µM

**Q.** Which EC50 does the source give for `COc1cc(C(=O)NC(=S)Nc2ccc(Cc3ccncc3)cc2)cc(OC)c1OC` here?
**A.** 2.45 µM

**Q.** With `Cc1ccc(C(=O)Nc2nnc(C3=COCCO3)o2)cc1C` as the compound, how does the EC50 read?
**A.** 2.96 µM

**Q.** With `O=c1cc(N2CCCCC2)c(-c2ccccc2)nn1Cc1c(Cl)cccc1Cl` as the compound, how does the EC50 read?
**A.** 4.69 µM

**Q.** For `CCOC(=O)c1c(NS(=O)(=O)c2ccc(Br)cc2)sc2c1CCC2`, which EC50 is on record?
**A.** 1.6 µM

**Q.** `Nc1c(S(=O)(=O)c2cccs2)c2nc3ccccc3nc2n1/N=C/c1cccc(O)c1` was tested. Which EC50 did it give?
**A.** 4.53 µM

**Q.** How did the EC50 turn out when `CC(/C=C1\SC(=S)N(NS(=O)(=O)c2ccccc2)C1=O)=C\c1ccccc1` was run?
**A.** 5.38 µM

**Q.** For `Cc1ccc(CNC(=O)c2ccc([N+](=O)[O-])o2)cc1`, which EC50 is on record?
**A.** 4.67 µM

**Q.** `COc1ccc(-c2csc(NC(=O)c3ccc(C(C)(C)C)cc3)c2C(=O)O)cc1` was tested. Which EC50 did it give?
**A.** 1.21 µM

**Q.** Which EC50 does the source give for `Cc1cccc(NC(=O)C(=O)NNC(=O)c2ccc(C(C)(C)C)cc2)c1` here?
**A.** 5.41 µM

**Q.** `O=c1ccc(N=Nc2ccccc2)ccc1O` was tested. Which EC50 did it give?
**A.** 3.51 µM

**Q.** Which EC50 does the source give for `Cc1[nH][nH]c(=O)c1C(c1c(C)[nH][nH]c1=O)c1cn(Cc2ccc(Cl)c(Cl)c2)c2ccccc12` here?
**A.** 3.07 µM

**Q.** With `COc1cccc(C(=O)Nc2nnc(-c3cccs3)o2)c1` as the compound, how does the EC50 read?
**A.** 3.34 µM

**Q.** Which EC50 does the source give for `Cn1c(=O)c2c(nc(SCc3ccccc3)n2Cc2ccc(Cl)cc2)n(C)c1=O` here?
**A.** 2.3 µM

**Q.** With `CN1CCN(C(c2ccc(Cl)cc2)c2cc(Cl)c3cccnc3c2O)CC1` (stereo not given) as the compound, how does the EC50 read?
**A.** 1.46 µM

**Q.** Which EC50 does the source give for `CC(C)c1ccc2nc3sc(C(=O)N4CCc5ccccc5C4)c(N)c3cc2c1` here?
**A.** 14.5 µM

**Q.** With `COc1ccc(C(=O)/C=C/c2ccc(O)cc2)c(O)c1CC=C(C)C` as the compound, how does the EC50 read?
**A.** 2.14 µM

**Q.** For `Oc1ccccc1N=Nc1ccccc1O`, which EC50 is on record?
**A.** 0.961 µM

**Q.** With `CCC[C@@H]1C[C@@]1(CCC)[C@@H](NP(=O)(c1ccccc1)c1ccccc1)c1ccc(C(=O)OC)cc1` as the compound, how does the EC50 read?
**A.** 2.14 µM

**Q.** Which EC50 does the source give for `O=C(Cc1ccccc1)N/N=C/c1cc(Br)cc(Cl)c1O` here?
**A.** 1.52 µM

**Q.** For `CCCCCCCCCCCCCCCC(O)C(N)CO` (stereo not given), which EC50 is on record?
**A.** 2.2 µM

**Q.** With `O=C(Nc1nnc(SCc2ccccc2Cl)s1)C1COc2ccccc2O1` (stereo not given) as the compound, how does the EC50 read?
**A.** 7.21 µM

**Q.** `O=C(CSc1nnc(NC(=O)c2ccccc2[N+](=O)[O-])s1)NC1CCCC1` was tested. Which EC50 did it give?
**A.** > 15 µM (inactive)

**Q.** How did the EC50 turn out when `CC12CCC(C(=O)Nc3cccc(Cl)c3Cl)([C@H](Br)C1=O)C2(C)C` (stereo not given in full) was run?
**A.** > 15 µM (inactive)

**Q.** With `CCOC(=O)c1c(NC(=O)c2cccs2)sc(CC)c1-c1cccs1` as the compound, how does the EC50 read?
**A.** 13.1 µM

**Q.** `O=[N+]([O-])c1ccc(NCc2ccc(Cl)cc2)c2ccncc12` was tested. Which EC50 did it give?
**A.** 9.29 µM

**Q.** How did the EC50 turn out when `COc1ccc(C(=O)NC(=S)NNC(=O)c2ccco2)cc1` was run?
**A.** 4.48 µM

**Q.** For `CCCCCCOC(=O)/C=C/c1c(C)[nH]c(=O)[nH]c1=O`, which EC50 is on record?
**A.** 0.475 µM

**Q.** Which EC50 does the source give for `CCCc1ccc(-c2cc(N)n[nH]2)cc1` here?
**A.** 4.89 µM

**Q.** `CCOC(=O)C1=C(C)N=c2s/c(=C/c3ccc(OCC(=O)O)c(OC)c3)c(=O)n2C1c1ccc(Cl)cc1` (stereo not given) was tested. Which EC50 did it give?
**A.** 5 µM

**Q.** For `CC(=O)c1c(O)cc(O)c(C(C)=O)c1O`, which EC50 is on record?
**A.** 2.64 µM

**Q.** With `COc1cc(NC(=O)CSc2ncnc3sc4c(c23)CCCC4)c(C(=O)O)cc1OC` as the compound, how does the EC50 read?
**A.** 12 µM

**Q.** For `Cc1cccc(C)c1NC(=O)CN(C)CC(=O)Nc1sc2c(c1C(N)=O)CCC2`, which EC50 is on record?
**A.** > 15 µM (inactive)

**Q.** With `CCc1nn(CCCC(=O)NCc2ccccc2Br)c(=O)c2cc3occc3n12` as the compound, how does the EC50 read?
**A.** 2.55 µM

**Q.** For `CCC1CCCCN1S(=O)(=O)c1ccc(C(=O)Nc2nnc(C3=COCCO3)o2)cc1` (stereo not given), which EC50 is on record?
**A.** 5.72 µM

**Q.** How did the EC50 turn out when `CN(C(=S)NC(=O)c1ccccc1)C1CCCCC1` was run?
**A.** > 15 µM (inactive)

**Q.** For `CC(C)=CCC12Oc3cc(O)ccc3C1(O)Oc1cc3c(c(O)c1C2=O)C=CC(C)(C)O3` (stereo not given), which EC50 is on record?
**A.** 2.4 µM

**Q.** `CC12CCC(CC1)C(C)(C)O2` was tested. Which EC50 did it give?
**A.** > 15 µM (inactive)

**Q.** For `CCCCn1c(CCCNC(=O)c2ccco2)nc2ccccc21`, which EC50 is on record?
**A.** > 15 µM (inactive)

**Q.** With `COc1ccc(C(=O)NNC(=S)NC(=O)/C=C/c2cccs2)cc1` as the compound, how does the EC50 read?
**A.** 0.598 µM

**Q.** How did the EC50 turn out when `O=C(CSc1nnc(NC(=O)c2ccccc2)s1)NCC1CCCO1` (stereo not given) was run?
**A.** > 15 µM (inactive)

**Q.** For `O=S(=O)(Nc1cccc(-c2ccc(N3CCOCC3)nn2)c1)c1ccc(Cl)c(Cl)c1`, which EC50 is on record?
**A.** 9.66 µM

**Q.** `Cc1onc(-c2ccccc2)c1C(=O)NC(=S)NNC(=O)c1ccco1` was tested. Which EC50 did it give?
**A.** 0.943 µM

**Q.** For `CCOC(=O)C1=NN(C(=O)c2ccc(OC)cc2)C(O)(c2ccc(Cl)cc2)C1` (stereo not given), which EC50 is on record?
**A.** 6 µM

**Q.** For `CCCc1nc2ccccc2c(=O)n1/N=C/c1c(C)[nH]n(-c2ccc(C)cc2)c1=O`, which EC50 is on record?
**A.** 1.23 µM

**Q.** For `CC1CC(C)CN(S(=O)(=O)c2ccc(C(=O)Nc3nnc(C4CC4)o3)cc2)C1` (stereo not given), which EC50 is on record?
**A.** 1.03 µM

**Q.** How did the EC50 turn out when `CCCCNC(=O)c1cn(CC(C)C)c(=O)c2c1c1ccccc1n2C` was run?
**A.** 9.02 µM

**Q.** With `Cc1ccc(C(=O)N/N=C/c2cc(Br)ccc2O)cn1` as the compound, how does the EC50 read?
**A.** 2.48 µM
